How the values were obtained:
[1] = Dynamic PET scan of [18F]-YJH08, time activity curves; assay type: in vivo, mouse; details: two phase exponential decay fit; C57B16/J mice
Procedure: To understand the biodistribution of [18F]-YJH08 in vivo, a dynamic PET scan over 60 min was first conducted in immunocompetent male C57B16/J mice (FIG. 3A). Prior to injection, the formulated dose of [18F]-YJH08 was passed through a sterile 0.22 μm membrane. Approximately 300 μCi was injected via tail vein in a volume of 100-150 μL per mouse. After a given period of uptake time, the mice were anesthetized with 2-3% isoflurane, and imaged with a Siemens Inveon micro PET/CT. For dynamic acquisitions, the mice were anesthetized prior to injection, and injected while positioned on the scanner bed. All imaging data was decay corrected, reconstructed, and analyzed with AMIDE software. Maximum intensity projections (MIPs) were generated by AMIDE software. Regions of interest (ROI) were manually placed to calculate SUV data from the dynamic acquisitions.
First, the radiotracer rapidly cleared from serum, and fitting the data with a two phase exponential decay curve estimated the fast and slow half-lives to be ˜21 sec and ˜760 sec, respectively. Moreover, liver uptake was prominent at very early time points post injection (0-300 sec), with continuous washout from ˜300-3600 sec.

ER = molecular target: T1, ER (Homo sapiens, UniProt P03372); experiment: 3H-ligand displacement assay on cells, ER (MCF7); assay type: binding
T1 construct: MCF7 (PR, ER); endogenous in cells; host or cells: MCF7
T1 sequence (P03372 1-595): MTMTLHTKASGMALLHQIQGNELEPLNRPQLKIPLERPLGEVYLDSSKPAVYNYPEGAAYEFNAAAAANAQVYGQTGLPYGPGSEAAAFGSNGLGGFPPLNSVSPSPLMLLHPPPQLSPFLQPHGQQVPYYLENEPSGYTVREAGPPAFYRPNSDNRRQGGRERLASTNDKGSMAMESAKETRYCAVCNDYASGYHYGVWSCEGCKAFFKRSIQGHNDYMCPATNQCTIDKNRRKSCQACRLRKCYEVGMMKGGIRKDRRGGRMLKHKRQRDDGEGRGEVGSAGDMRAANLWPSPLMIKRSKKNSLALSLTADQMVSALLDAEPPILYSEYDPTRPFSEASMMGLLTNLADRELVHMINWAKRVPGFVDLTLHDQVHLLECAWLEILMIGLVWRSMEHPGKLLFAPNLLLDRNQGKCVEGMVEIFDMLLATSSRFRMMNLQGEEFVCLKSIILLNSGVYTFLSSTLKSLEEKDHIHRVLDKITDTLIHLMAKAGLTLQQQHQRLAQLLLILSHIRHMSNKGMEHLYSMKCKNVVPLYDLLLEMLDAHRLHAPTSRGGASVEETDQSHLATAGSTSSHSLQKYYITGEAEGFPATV
Procedure: (§1) The affinity of YJH08 for GR and the other type 1 subfamily 3 nuclear hormone receptors was evaluated using ^3H-ligand displacement assays on cells. The Kd for subfamily 3 class C nuclear hormone receptors was determined on cells by displacing ^3H-steroidal agonists for the respective receptor. […] The Kd was determined using the following cell lines: DU145 (GR), LNCaP-AR (AR), MCF7 (PR, ER), and HEK293 transiently overexpressing full length human MR.
(§2) The cold ligands and ^3H-steroids were co-incubated on cells in PBS at room temperature for one hour. Following incubation, the cells were washed twice with ice cold PBS and the unbound activity was retained for analysis. The cells were lysed with 1 mL of 1M NaOH and collected. Bound and unbound fractions were counted in a liquid scintillation counter and expressed as a percentage of the total activity added per equal relative number of cells. […] These experiments were performed at three concentrations of experimental ligand (1 pM, 100 nM and 10 μM), and a linear extrapolation was used to subtract the non-specific component of binding from each treatment condition. The specific binding component was plotted against the log of the competing ligand and curve fit using a non-linear regression algorithm with PRISM software.

PR = molecular target: T2, PR (Homo sapiens, UniProt P06401); experiment: 3H-ligand displacement assay on cells, PR (MCF7); assay type: binding
T2 construct: MCF7 (PR, ER); endogenous in cells; host or cells: MCF7
T2 sequence (P06401 1-933): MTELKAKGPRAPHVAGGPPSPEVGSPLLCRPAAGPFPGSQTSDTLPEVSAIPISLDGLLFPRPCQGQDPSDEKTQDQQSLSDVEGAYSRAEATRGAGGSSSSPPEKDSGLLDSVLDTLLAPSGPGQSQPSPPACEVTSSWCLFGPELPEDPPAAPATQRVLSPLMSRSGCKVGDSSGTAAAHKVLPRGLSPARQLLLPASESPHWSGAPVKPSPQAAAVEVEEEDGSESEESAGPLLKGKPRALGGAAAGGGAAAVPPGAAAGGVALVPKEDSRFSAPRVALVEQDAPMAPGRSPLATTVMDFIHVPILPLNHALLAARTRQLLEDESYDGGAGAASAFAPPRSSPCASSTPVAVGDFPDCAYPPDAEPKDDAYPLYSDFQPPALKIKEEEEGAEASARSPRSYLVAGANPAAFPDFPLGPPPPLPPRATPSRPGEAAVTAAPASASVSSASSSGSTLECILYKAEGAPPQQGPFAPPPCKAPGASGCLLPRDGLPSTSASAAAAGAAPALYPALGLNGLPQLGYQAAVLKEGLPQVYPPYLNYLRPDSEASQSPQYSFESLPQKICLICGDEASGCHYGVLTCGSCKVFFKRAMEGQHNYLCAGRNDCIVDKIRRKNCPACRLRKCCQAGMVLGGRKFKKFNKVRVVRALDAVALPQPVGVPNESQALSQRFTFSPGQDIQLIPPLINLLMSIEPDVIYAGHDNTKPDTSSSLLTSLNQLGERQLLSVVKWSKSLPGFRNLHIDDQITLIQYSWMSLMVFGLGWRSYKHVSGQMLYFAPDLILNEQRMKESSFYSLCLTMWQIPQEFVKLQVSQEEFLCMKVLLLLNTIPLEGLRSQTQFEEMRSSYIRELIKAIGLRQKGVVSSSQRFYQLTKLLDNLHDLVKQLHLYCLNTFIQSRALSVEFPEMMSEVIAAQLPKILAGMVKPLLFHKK
Procedure: as §1, §2

Kd (ER)	Kd (PR)	SMILES	serum clearance fast half-life [1]	serum clearance slow half-life [1]
–	–	COc1cccc2c1-c1ccc3c(c1C(Cc1ccc([18F])cc1)O2)C(C)=CC(C)(C)N3 (racemic) [[18F]-YJH08, [^18F]-5-(4-fluorobenzyl)-10-methoxy-2,2,4-trimethyl-2,5-dihydro-1H-chromeno[3,4-f]quinoline]	~0.35 min	~12.7 min
19 µM	0.555 µM	COc1cccc2c1-c1ccc3c(c1C(Cc1ccc(F)cc1)O2)C(C)=CC(C)(C)N3 (racemic) [YJH08, 5-(4-fluorobenzyl)-10-methoxy-2,2,4-trimethyl-2,5-dihydro-1H-chromeno[3,4-f]quinoline]	–	–

From patent US20220280661A1, “GLUCOCORTICOID RECEPTOR RADIOLIGANDS AND METHODS FOR THEIR PREPARATION AND USE” (The Regents of the University of California, priority 2019, published 2022)
